Read-outs that look alike come from different tables or passages of the source.
Tests used:
[1] = tested on: transgenic Arabidopsis plants (T2) AtHPPD M335H, P336A, E363Q; assay: Greenhouse herbicide spray test; type: in vivo, Arabidopsis thaliana; settings: two weeks after treatment
Text: (§1) For post emergence treatment, the test plants are first grown to a height of 3 to 15 cm, depending on the plant habit, and only then treated with the herbicides. For this purpose, the test plants are either sown directly and grown in the same containers, or they are first grown separately and transplanted into the test containers a few days prior to treatment.
(§2) Herbicide injury scoring is done 2-3 weeks after treatment and is rated on a scale of 0 to 100%, 0% being no injury and 100% being complete death.
(§3) Transgenic Arabidopsis plants were sprayed with a range of doses from 0.78-6.25 g/ha of different HPPD-inhibiting herbicides and injury evaluations were taken two weeks after treatment.

[2] = tested on: transgenic Arabidopsis plants (T2) AtHPPD M335Y, P336A, E363Q; assay: Greenhouse herbicide spray test; type: in vivo, Arabidopsis thaliana; settings: two weeks after treatment
Text: as §1, §2, §3

[3] = tested on: transgenic Arabidopsis plants (T2) HvHPPD L320H, P321A; assay: Greenhouse herbicide spray test; type: in vivo, Arabidopsis thaliana; settings: two weeks after treatment
Text: as §1, §2, §3

[4] = tested on: Arabidopsis plants, transgene none (WT); assay: Greenhouse herbicide spray test; type: in vivo, Arabidopsis thaliana; settings: two weeks after treatment
Text: as §1, §2, §3

[5] = tested on: transgenic Arabidopsis plants (T2) AtHPPD F381I; assay: Greenhouse herbicide spray test; type: in vivo, Arabidopsis thaliana; settings: two weeks after treatment
Text: as §1, §2, §3

[6] = tested on: transgenic Arabidopsis plants (T2) PtHPPD WT (Picrophilus HPPD); assay: Greenhouse herbicide spray test; type: in vivo, Arabidopsis thaliana; settings: for Injury evaluation: Arabidopsis T2 PtHPPD WT, two weeks after treatment
Text: as §1, §2, §3

[7] = tested on: transgenic Arabidopsis plants (T2) HvHPPD L320H; type: in vivo, Arabidopsis thaliana; settings: for Injury evaluation: Arabidopsis T2 HvHPPD L320H, two weeks after treatment
Text: as §1, §2, §3

[8] = target: T1, Arabidopsis HPPD (SEQ ID NO:53) (Arabidopsis thaliana, UniProt P93836); assay: HPPD activity assay (HPLC of homogentisic acid); type: biochemical; settings: for Normalized tolerance index (TI): Arabidopsis HPPD variant Wild-type (reference, SEQ ID: 53); for TI (tolerance index): Arabidopsis HPPD, not normalized; for TI normalized to Arabidopsis HPPD: HPPD enzyme Arabidopsis (reference)
T1 construct: His6 (N); made in house; host or cells: E. coli BL21 (DE3)
T1 sequence (P93836 1-445): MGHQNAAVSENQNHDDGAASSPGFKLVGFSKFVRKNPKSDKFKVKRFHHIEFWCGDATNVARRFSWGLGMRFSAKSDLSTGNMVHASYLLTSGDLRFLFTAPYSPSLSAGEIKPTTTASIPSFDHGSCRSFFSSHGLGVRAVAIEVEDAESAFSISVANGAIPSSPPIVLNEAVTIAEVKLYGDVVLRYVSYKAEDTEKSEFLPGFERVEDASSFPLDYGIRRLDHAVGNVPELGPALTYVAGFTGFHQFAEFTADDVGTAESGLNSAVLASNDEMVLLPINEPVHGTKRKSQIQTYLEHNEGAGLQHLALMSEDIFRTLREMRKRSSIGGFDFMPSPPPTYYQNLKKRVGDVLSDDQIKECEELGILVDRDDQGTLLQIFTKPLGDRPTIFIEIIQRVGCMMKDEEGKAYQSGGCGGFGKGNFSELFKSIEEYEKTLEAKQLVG
Protocol: The activity assay for HPPD is based on the analysis of homogentisic acid by reversed phase HPLC.
The assay mixture can contain 150 mM potassium phosphate buffer pH 7.0, 50 mM L-ascorbic acid, 100 μM Catalase (Sigma-Aldrich), 1 μM FeSO4 and 0.2 units of purified HPPD enzyme in a total volume of 505 μl. 1 unit is defined as the amount of enzyme that is required to produce 1 nmol of HGA per minute at 20° C.
The reaction is allowed to proceed for 45 min at room temperature. The reaction is stopped by the addition of 50 μl of 4.5 M phosphoric acid. The sample is filtered using a […] pore size PVDF filtration device. 5 μl of the cleared sample is analyzed on an UPLC HSS T3 column (particle size 1.8 μm, dimensions 2, 1×50 mm; Waters) by isocratic elution using 90% 20 mM NaH2PO4 pH 2.2, 10% methanol (v/v).
HGA is detected electrochemically at 750 mV (mode: DC; polarity: positive) and quantified by integrating peak areas (Empower software; Waters).
Inhibitors are dissolved in DMSO (dimethylsulfoxide) to a concentration of 0.5 mM. From this stock solution serial five-fold dilutions are prepared in DMSO, which are used in the assay. The respective inhibitor solution accounts for 1% of the assay volume. Thus, final inhibitor concentrations range from 5 μM to 320 pM, respectively. Activities are normalized by setting the uninhibited enzyme activity to 100%. IC50 values are calculated using non-linear regression.
Using methods which are described in the above examples or well known in the art, purified recombinant wild-type HPPD enzymes are characterized with respect to their kinetic properties and sensitivity towards HPPD inhibiting herbicides. Apparent michaelis constants (Km) and maximal reaction velocities (Vmax) are calculated by non-linear regression with the software GraphPad Prism 5 (GraphPad Software, La Jolla, USA) using a substrate inhibition model. […] Weighted means (by standard error) of Km and IC50 values are calculated from at least three independent experiments. The Cheng-Prusoff equation for competitive inhibition (Cheng, Y. C.; Prusoff, W. H. Biochem Pharmacol 1973, 22, 3099-3108) is used to calculate dissociation constants (Ki).
Field performance of the HPPD enzyme, which is used as a herbicide tolerance trait may depend not only on its lack of sensitivity towards HPPD inhibiting herbicides but also on its activity. To assess the potential performance of a herbicide tolerance trait a tolerance index (TI) is calculated using the following formula: […]
Easy comparison and ranking of each trait is enabled by normalizing tolerance indexes on Arabidopsis wild-type HPPD.

[9] = Table 18, no transgene, 0.78 g/ha
[10] = Table 18, no transgene, 1.56 g/ha
[11] = Table 18, no transgene, 3.125 g/ha
[12] = Table 18, no transgene, 6.25 g/ha
[13] = Table 19, no transgene, 0.78 g/ha
[14] = Table 19, no transgene, 1.56 g/ha
[15] = Table 19, no transgene, 3.125 g/ha
[16] = Table 19, no transgene, 6.25 g/ha

Row | Structure (SMILES) | Injury evaluation ([1]; 0.78 g/ha) [%] | Injury evaluation ([1]; 1.56 g/ha) [%] | Injury evaluation ([1]; 3.125 g/ha) [%] | Injury evaluation ([1]; 6.25 g/ha) [%] | Injury evaluation ([2]; 0.78 g/ha) [%] | Injury evaluation ([2]; 1.56 g/ha) [%] | Injury evaluation ([2]; 3.125 g/ha) [%] | Injury evaluation ([2]; 6.25 g/ha) [%] | Injury evaluation ([3]; 0.78 g/ha) [%] | Injury evaluation ([3]; 1.56 g/ha) [%] | Injury evaluation ([3]; 3.125 g/ha) [%] | Injury evaluation ([3]; 6.25 g/ha) [%] | Injury evaluation [4, 9] [%] | Injury evaluation [4, 10] [%] | Injury evaluation [4, 11] [%] | Injury evaluation [4, 12] [%] | Injury evaluation [4, 13] [%] | Injury evaluation [4, 14] [%] | Normalized tolerance index (TI) [8] | TI normalized to Arabidopsis HPPD [8] | further results
1 | Cc1c(C(=O)c2cnn(C)c2O)ccc(S(C)(=O)=O)c1C1=NOCC1 [Inhibitor 1, [3-(4,5-dihydroisoxazol-3-yl)-2-methyl-4-methylsulfonyl-phenyl]-(5-hydroxy-1-methyl-pyrazol-4-yl)methanone] | 0 | 10 | 15 | 15 | 12 | 21 | 42 | 68 | 0 | 0 | 0 | 0 | 89 | 99 | 99 | 100 | 85 | 88 | 1 | 1 | Injury evaluation [4, 15]: 96%; Injury evaluation [4, 16]: 99%; Injury evaluation ([5]; 1.56 g/ha): 43%; Injury evaluation ([5]; 3.125 g/ha): 55%; Injury evaluation ([5]; 6.25 g/ha): 70%; Injury evaluation ([6]; 0.78 g/ha): 13%; Injury evaluation ([6]; 1.56 g/ha): 17%; Injury evaluation ([6]; 3.125 g/ha): 62%; Injury evaluation ([6]; 6.25 g/ha): 99%; fold less susceptible compared to the control ([6]; Arabidopsis expressing Picrophilus HPPD, dose of 3,125 g/ha): 1.6 fold; fold tolerance compared to the control ([6]; Arabidopsis expressing Picrophilus HPPD, two lowest application rates): 6.8 fold; fold increased tolerance ([7]; Arabidopsis HvHPPD L320H, lowest concentration tested): 6.5 fold; Injury evaluation ([7]; 0.78 g/ha): 13%; Injury evaluation ([7]; 1.56 g/ha): 57%; Injury evaluation ([7]; 3.125 g/ha): 68%; Injury evaluation ([7]; 6.25 g/ha): 94%; TI (tolerance index) [8]: 9.5E−4
2 | CS(=O)(=O)c1ccc(C(=O)C2C(=O)CCCC2=O)c([N+](=O)[O-])c1 [Inhibitor 2, 2-(4-methylsulfonyl-2-nitro-benzoyl)cyclohexane-1,3-dione] | 3 | 0 | 13 | 12 | 5 | 12 | 21 | 38 | 0 | 0 | 0 | 0 | 78 | 95 | 100 | 99 | 93 | 99 | 1 | 1 | Injury evaluation [4, 15]: 100%; Injury evaluation [4, 16]: 100%; Injury evaluation ([5]; 1.56 g/ha): 20%; Injury evaluation ([5]; 3.125 g/ha): 25%; Injury evaluation ([5]; 6.25 g/ha): 78%; Injury evaluation ([6]; 0.78 g/ha): 0%; Injury evaluation ([6]; 1.56 g/ha): 0%; Injury evaluation ([6]; 3.125 g/ha): 3%; Injury evaluation ([6]; 6.25 g/ha): 0%; leaf damage (in words) ([6]; Arabidopsis overexpressing Picrophilus HPPD (SEQ-ID:40), tested application rates 0.78-6.25 g/ha): no leaf damages could be observed; resistance (in words) ([7]; Arabidopsis HvHPPD L320H, 0.78-6.25 g/ha): resistant; Injury evaluation ([7]; 0.78 g/ha): 0%; Injury evaluation ([7]; 1.56 g/ha): 0%; Injury evaluation ([7]; 3.125 g/ha): 0%; Injury evaluation ([7]; 6.25 g/ha): 0%; Ki [8]: 36 nM; TI (tolerance index) [8]: 3.6E−2
3 | COCCOCc1nc(C(F)(F)F)ccc1C(=O)C1=C(O)C2CCC(C2)C1=O (stereo not drawn) [Inhibitor 3, 2-hydroxy-3-[2-(2-methoxyethoxymethyl)-6-(trifluoromethyl)pyridine-3-carbonyl]bicyclo[3.2.1]oct-2-en-4-one] |  |  |  |  |  |  |  |  |  |  |  |  |  |  |  |  |  |  | 1 | 1 | 
4 | CS(=O)(=O)c1ccc(C(=O)C2C(=O)CCCC2=O)c(Cl)c1COCC(F)(F)F [Inhibitor 4, 2-[2-chloro-4-methylsulfonyl-3-(2,2,2-trifluoroethoxymethyl)benzoyl]cyclohexane-1,3-dione] |  |  |  |  |  |  |  |  |  |  |  |  |  |  |  |  |  |  | 1 | 1 | 
